Experimental data published in patent US8163796B1, “Treatment of cancer by oxidation-reduction potentiation of cancerostatic dicarbonyls” (BioChemical Solutions, LLC, priority 2009, dated 2012).

Key:
cancer cells = conditions: cited from earlier work
[1] = oral administration; cited from earlier work
[2] = mice, single oral dose of 200 mg; cited from earlier work
[3] = system: murine B cell lymphoma cell line (A20;ATCC#TIB-208); experiment: Tritiated thymidine incorporation (growth rate) of cultured lymphoma cells; type: cell-based; conditions: for Mean, cpm (tritiated thymidine count, growth rate): 12 hours, triplicates
Procedure: The effect of methylglyoxal concentration on the growth rate of cultured lymphoma cells is shown below. The cells used were murine B cell lymphoma cell line (A20;ATCC#TIB-208). Cells labeled A20 were untreated cells that were passed through their regular media. A20 Methylglyoxal Reversed cells had undergone 3 passages in media containing 1 mM methylglyoxal followed by 3 passages in regular media before use. A20 Methylglyoxal P6 cells had 6 passages in media containing 1 mM methylglyoxal before use. At the start of the experiment harvested cells were incubated with DNA precursor tritiated thymidine in media containing the various concentrations of methylglyoxal for 12 hours, then harvested and counted in a scintillation counter. The count data in cpm reflect the growth rate of the cells in the presence of the various methylglyoxal concentrations. Relevant data from this in vitro study are presented here.

[4] = (IV) administration at 3.0 grams/m^2; cited from earlier work

SMILES: CC(=O)C=O [Methylglyoxal, methylglyoxal]
- Levels causing protein synthesis inhibition, arrested cell growth and induced apoptosis (cancer cells; cancer cells, normal cells were not affected): 1 to 3 mM
- Concentration required to achieve 95-100% cell death (cancer cells; cultured cancer cells or mice inoculated intraperitoneally with cancer cells): ~3 mM
- Oral uptake [1]: less than 5%
- Time of peak blood concentration [2]: 4 h
- Survival of lymphoma cells on passage in methylglyoxal ([3]; 1 mM methylglyoxal in media, 3 or 6 passages): able to survive
- Effect on growth rate ([3]; 1.2 mM methylglyoxal, all three A20 cell groups): severely slowed their growth rate
- Growth rate relative to the controls ([3]; 2.5 mM and 5.0 mM methylglyoxal, all three A20 cell groups): less than 0.1 % of the controls
- Mean, cpm (tritiated thymidine count, growth rate) ([3]; A20 1 mM Methylglyoxal P6 cells, 0.3 mM methylglyoxal): 36,001 cpm
- Mean, cpm (tritiated thymidine count, growth rate) ([3]; A20 1 mM Methylglyoxal P6 cells, 0.6 mM methylglyoxal): 35,157 cpm
- Mean, cpm (tritiated thymidine count, growth rate) ([3]; A20 1 mM Methylglyoxal P6 cells, 1.2 mM methylglyoxal): 1,470 cpm
- Mean, cpm (tritiated thymidine count, growth rate) ([3]; A20 1 mM Methylglyoxal P6 cells, 2.5 mM methylglyoxal): 24 cpm
- Mean, cpm (tritiated thymidine count, growth rate) ([3]; A20 1 mM Methylglyoxal P6 cells, 5.0 mM methylglyoxal): 9 cpm
- Mean, cpm (tritiated thymidine count, growth rate) ([3]; A20 1 mM Methylglyoxal Reversed P3 cells, 0.3 mM methylglyoxal): 34,220 cpm
- Mean, cpm (tritiated thymidine count, growth rate) ([3]; A20 1 mM Methylglyoxal Reversed P3 cells, 0.6 mM methylglyoxal): 33,927 cpm
- Mean, cpm (tritiated thymidine count, growth rate) ([3]; A20 1 mM Methylglyoxal Reversed P3 cells, 1.2 mM methylglyoxal): 587 cpm
- Mean, cpm (tritiated thymidine count, growth rate) ([3]; A20 1 mM Methylglyoxal Reversed P3 cells, 2.5 mM methylglyoxal): 7 cpm
- Mean, cpm (tritiated thymidine count, growth rate) ([3]; A20 1 mM Methylglyoxal Reversed P3 cells, 5.0 mM methylglyoxal): 12 cpm
- Development of resistance to methylglyoxal ([3]; A20 Methylglyoxal Reversal and A20 Methylglyoxal P6 cells, passaged in 1 mM methylglyoxal): no evidence
- Mean, cpm (tritiated thymidine count, growth rate) ([3]; A20 untreated cells, 0.3 mM methylglyoxal): 36,289 cpm
- Mean, cpm (tritiated thymidine count, growth rate) ([3]; A20 untreated cells, 0.6 mM methylglyoxal): 30,119 cpm
- Mean, cpm (tritiated thymidine count, growth rate) ([3]; A20 untreated cells, 1.2 mM methylglyoxal): 275 cpm
- Mean, cpm (tritiated thymidine count, growth rate) ([3]; A20 untreated cells, 2.5 mM methylglyoxal): 6 cpm
- Mean, cpm (tritiated thymidine count, growth rate) ([3]; A20 untreated cells, 5.0 mM methylglyoxal): 8 cpm

SMILES: CCCCS(=N)(=O)CCC(N)C(=O)O (stereo not drawn) [buthioinine sulfoximine, buthionine sulfoximine]
- Deleterious effects [4]: no deleterious effects
